Measured values published in article PMC7681098 (Theranostics, 2021).
Read-outs that look alike come from different tables or passages of the source.

Legend:
ERK1 = target: T1, ERK1 (Homo sapiens, UniProt P27361); assay: Kinase inhibition assay (Reaction Biology); type: biochemical
T1 construct: purchased Reaction Biology Corporation (PA, USA)

FLT3 (D835Y) = target: T2, FLT3 (D835Y) (Homo sapiens, UniProt P36888, D835Y); assay: Kinase inhibition assay (Reaction Biology); type: biochemical
T2 construct: purchased Reaction Biology Corporation (PA, USA)

ERK2/MAPK1 = target: T3, ERK2/MAPK1 (Homo sapiens, UniProt P28482); assay: Kinase inhibition assay (Reaction Biology); type: biochemical
T3 construct: purchased Reaction Biology Corporation (PA, USA)
T3 sequence (P28482 whole entry): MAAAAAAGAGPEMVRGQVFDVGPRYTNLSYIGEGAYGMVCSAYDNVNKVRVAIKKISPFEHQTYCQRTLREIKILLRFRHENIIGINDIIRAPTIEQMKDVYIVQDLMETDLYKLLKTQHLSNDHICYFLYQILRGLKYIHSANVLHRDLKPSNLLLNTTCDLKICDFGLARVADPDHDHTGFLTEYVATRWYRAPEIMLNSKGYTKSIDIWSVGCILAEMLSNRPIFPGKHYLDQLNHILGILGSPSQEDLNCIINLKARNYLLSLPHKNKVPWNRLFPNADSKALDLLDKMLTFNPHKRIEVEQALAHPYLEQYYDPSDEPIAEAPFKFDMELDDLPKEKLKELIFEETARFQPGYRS

[1] = system: bone marrow mononuclear cells (BMMCs); assay: Apoptosis assay in normal bone marrow mononuclear cells; type: cell-based, C57BL/6 mice; conditions: 36 h
Experimental: Blue square and solid line represent intravenous injection administration. […] Mice were sacrificed at indicated time points and then tumor tissues were dissected and lysed. Phosphorylation levels of FLT3, STAT5 and ERK1/2 were measured by western blotting. (C) Bone marrow mononuclear cells (BMMCs) were isolated from healthy C57BL/6 mice. […] Apoptosis assays were conducted after 36-hour incubation. […] 24 h after the last administration, c-Kit^+ cells were evaluated by flow cytometry. […] Data were shown with mean±SD.
Then, we evaluated progenitor cell (c-Kit^+) lineages of bone marrow cells (Figure 4D), spleen or liver weights (Figure S2A), relative body weights (Figure S2B), and parameters of blood routine examination (Figure S2C).

FLT3 = FLT3 (Homo sapiens, UniProt P36888); assay: Cellular thermal shift assay (CETSA / ITDRF CETSA) in MV4-11 cells; type: binding
Experimental: All studies were performed with the Super Streptavidin (SSA) biosensors (CA, USA). All binding experiments were performed according to the manufacturer's instructions. For the cellular thermal shift assay (CETSA), experiments were performed as described previously.
A concentration range from 0.3 nM to 1000 nM was defined (Figure 1B). […] CETSA has been used to identify FLT3-LT-171-861 interactions in live cell settings. […] We first verified that the inhibitor could stabilize FLT3 against denaturation using Western blot. […] An obvious thermal shift of the melting curve was detected in the LT-171-861-treated sample (Figure 1C). […] Accordingly, we identified 53 °C as the optimal temperature for isothermal […] fingerprint (ITDRF) CETSA.
(A) Chemical structure of LT-171-861. […] Data were then fitted to obtain KD value. […] Data were first normalized by setting the highest and lowest value in each set to 100% and 0% respectively. Data were obtained in the presence of the LT-171-861 (blue circle) as positive the control and DMSO (red square) as the negative control. All experiments were performed at three independent occasions and data are given as the mean ± SD. […] Cell viability was evaluated by MTT assay respectively. The IC50 values were calculated using nonlinear regression.

FLT4/VEGFR3 = target: T4, FLT4/VEGFR3 (Homo sapiens, UniProt P35916); assay: Kinase inhibition assay (Reaction Biology); type: biochemical
T4 construct: purchased Reaction Biology Corporation (PA, USA)
T4 sequence (P35916 25-1363): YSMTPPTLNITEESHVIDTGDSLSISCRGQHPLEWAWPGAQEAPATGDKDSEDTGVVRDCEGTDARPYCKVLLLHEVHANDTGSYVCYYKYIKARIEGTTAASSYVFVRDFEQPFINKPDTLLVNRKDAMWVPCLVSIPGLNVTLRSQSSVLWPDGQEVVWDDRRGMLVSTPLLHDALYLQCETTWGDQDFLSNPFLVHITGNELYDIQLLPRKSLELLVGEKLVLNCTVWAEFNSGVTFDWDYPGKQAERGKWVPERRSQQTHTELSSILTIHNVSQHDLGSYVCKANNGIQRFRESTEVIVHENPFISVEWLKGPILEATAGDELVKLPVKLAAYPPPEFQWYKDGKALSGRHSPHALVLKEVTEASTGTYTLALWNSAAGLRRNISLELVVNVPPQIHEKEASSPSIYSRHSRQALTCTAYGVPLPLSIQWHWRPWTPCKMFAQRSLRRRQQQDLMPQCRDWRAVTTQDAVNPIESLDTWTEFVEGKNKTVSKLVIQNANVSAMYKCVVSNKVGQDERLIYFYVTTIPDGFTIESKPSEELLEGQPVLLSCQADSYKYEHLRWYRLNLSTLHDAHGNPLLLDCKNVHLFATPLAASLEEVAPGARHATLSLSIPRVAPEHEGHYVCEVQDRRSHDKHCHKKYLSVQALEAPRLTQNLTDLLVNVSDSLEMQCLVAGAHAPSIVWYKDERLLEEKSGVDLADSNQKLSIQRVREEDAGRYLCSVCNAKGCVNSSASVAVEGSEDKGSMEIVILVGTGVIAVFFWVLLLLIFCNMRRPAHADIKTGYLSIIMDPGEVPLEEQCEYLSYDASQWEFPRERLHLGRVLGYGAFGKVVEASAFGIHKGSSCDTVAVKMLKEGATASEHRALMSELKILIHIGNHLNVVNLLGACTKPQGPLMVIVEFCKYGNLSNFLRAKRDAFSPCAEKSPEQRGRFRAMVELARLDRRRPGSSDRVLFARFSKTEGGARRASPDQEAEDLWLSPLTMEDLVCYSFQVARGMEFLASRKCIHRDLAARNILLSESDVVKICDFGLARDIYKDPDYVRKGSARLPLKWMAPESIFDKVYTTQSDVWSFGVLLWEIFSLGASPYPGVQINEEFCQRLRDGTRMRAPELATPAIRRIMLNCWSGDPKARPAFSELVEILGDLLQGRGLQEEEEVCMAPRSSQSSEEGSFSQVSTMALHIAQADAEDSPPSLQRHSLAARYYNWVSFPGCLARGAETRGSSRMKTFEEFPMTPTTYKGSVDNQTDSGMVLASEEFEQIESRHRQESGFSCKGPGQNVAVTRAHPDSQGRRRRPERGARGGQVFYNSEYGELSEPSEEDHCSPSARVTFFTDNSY

U937 = assay: Cell proliferation MTT assay; type: cell-based; conditions: Homo sapiens, U-937, 72 h, wild-type FLT3, read-out: Human leukemia cell line IC50 U937
Experimental: The conditional medium (CM) was prepared from the supernatant of HS-5 cell culture for 5 days under normal culture conditions. At the indicated time point, cell viability was evaluated by MTT assay.

PK study in mice = type: in vivo, BALB/c mice; conditions: for MRT last: read-out: MRT(0-t); for MRT inf: read-out: MRT(0-∞); for concentration at 12 h: read-out: plasma concentration 12 h after administration; for half-life: read-out: apparent plasma half-life (t1/2z) (converted)
Experimental: After dosing, blood samples were collected at indicated time points (15 min, 30 min, 45 min, 60 min, 90 min, 2 h, 4 h, 6 h, 8 h, 12 h, 24 h). Blood samples from each group were collected at each time point and the supernatant was collected and used for HPLC/LC-MAS analysis.
Then, plasma levels of LT-171-861 were measured at each indicated time point. […] This inhibition efficacy lasted for 24 h, in accordance with the results of the PK experiment.

JAK3 = target: T5, JAK3 (Homo sapiens, UniProt P52333); assay: Kinase inhibition assay (Reaction Biology); type: biochemical
T5 construct: purchased Reaction Biology Corporation (PA, USA)
T5 sequence (P52333 whole entry): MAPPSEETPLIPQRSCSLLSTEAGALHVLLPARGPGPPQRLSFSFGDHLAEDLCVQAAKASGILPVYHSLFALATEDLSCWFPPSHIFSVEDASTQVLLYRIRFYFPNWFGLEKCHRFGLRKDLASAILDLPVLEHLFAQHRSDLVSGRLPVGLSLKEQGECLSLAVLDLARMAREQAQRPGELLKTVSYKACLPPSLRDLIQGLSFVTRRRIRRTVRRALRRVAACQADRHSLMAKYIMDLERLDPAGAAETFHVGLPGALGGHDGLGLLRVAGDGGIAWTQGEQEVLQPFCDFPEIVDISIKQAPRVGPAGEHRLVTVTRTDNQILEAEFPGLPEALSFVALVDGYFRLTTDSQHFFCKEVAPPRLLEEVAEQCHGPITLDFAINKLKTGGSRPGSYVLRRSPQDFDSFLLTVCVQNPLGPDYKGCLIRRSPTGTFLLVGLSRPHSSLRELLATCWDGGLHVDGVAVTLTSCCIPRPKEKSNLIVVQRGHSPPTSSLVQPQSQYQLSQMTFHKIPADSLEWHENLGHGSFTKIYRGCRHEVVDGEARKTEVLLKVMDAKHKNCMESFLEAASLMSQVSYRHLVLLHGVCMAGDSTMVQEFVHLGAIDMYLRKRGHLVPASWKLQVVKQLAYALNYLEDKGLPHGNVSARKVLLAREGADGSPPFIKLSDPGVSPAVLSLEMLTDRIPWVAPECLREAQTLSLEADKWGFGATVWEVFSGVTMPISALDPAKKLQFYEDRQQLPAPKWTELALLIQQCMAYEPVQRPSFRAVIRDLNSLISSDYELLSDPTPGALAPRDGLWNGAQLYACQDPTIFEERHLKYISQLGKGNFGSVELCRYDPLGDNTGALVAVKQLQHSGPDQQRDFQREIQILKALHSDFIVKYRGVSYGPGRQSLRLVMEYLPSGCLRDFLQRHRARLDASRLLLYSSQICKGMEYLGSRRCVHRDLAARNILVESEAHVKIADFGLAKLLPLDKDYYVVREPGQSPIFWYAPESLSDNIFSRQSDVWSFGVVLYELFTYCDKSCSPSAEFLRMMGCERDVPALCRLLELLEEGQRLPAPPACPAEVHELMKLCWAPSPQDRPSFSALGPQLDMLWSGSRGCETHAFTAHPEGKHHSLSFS

c-Src = target: T6, c-Src (Homo sapiens, UniProt P12931); assay: Kinase inhibition assay (Reaction Biology); type: biochemical
T6 construct: purchased Reaction Biology Corporation (PA, USA)
T6 sequence (P12931 whole entry): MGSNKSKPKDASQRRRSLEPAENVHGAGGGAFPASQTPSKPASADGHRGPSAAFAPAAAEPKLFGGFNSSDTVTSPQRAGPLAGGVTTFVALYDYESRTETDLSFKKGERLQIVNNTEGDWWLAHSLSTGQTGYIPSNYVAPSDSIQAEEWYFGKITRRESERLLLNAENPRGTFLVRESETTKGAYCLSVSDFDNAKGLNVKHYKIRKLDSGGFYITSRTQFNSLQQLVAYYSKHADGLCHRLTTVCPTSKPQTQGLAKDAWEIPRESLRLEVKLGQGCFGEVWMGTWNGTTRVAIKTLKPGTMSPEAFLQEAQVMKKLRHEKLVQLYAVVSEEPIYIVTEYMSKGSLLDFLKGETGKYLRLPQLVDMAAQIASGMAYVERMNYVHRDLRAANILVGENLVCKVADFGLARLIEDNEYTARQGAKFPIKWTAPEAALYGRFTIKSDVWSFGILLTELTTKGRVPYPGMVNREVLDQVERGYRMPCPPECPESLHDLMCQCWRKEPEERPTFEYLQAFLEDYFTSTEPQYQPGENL

[2] = female, BALB/c, mouse, plasma, 10 mg/kg, IV
[3] = female, BALB/c, mouse, plasma, po, 10 mg/kg, IG

T1 sequence (P27361 whole entry): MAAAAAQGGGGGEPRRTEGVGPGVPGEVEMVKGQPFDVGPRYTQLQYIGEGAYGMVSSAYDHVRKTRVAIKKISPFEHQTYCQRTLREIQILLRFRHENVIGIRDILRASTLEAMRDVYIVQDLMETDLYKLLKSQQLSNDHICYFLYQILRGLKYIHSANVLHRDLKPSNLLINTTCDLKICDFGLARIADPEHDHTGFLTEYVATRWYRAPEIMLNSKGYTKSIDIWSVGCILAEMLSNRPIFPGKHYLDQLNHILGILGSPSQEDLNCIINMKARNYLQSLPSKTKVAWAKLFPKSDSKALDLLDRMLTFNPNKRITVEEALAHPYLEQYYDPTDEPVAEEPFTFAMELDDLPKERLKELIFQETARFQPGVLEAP

CN1CCN(Cc2ccc(NC(=O)c3n[nH]cc3Nc3ncnc4[nH]ccc34)cc2)CC1 [LT-171-861]
IC50 (ERK1): > 0.2 µM | IC50 (ERK1; 10 μM ATP, 10-dose IC50 mode): 1.06 µM | IC50 (FLT3 (D835Y)): < 0.001 µM | IC50 (FLT3 (D835Y); 10 μM ATP, 10-dose IC50 mode): 0.000132 µM | IC50 (ERK2/MAPK1; 10 μM ATP, 10-dose IC50 mode, read-out: IC50 ERK2/MAPK1): 0.798 µM | IC50 (ERK2/MAPK1; read-out: IC50 ERK2): > 0.2 µM | toxicity in normal BMMCs [1]: hypotoxicity | Kd (FLT3; 1 h, 53 °C, read-out: fitted Kd value (ITDRF CETSA)): 0.0785 µM | apparent aggregation temperature (Tagg) for FLT3 (FLT3; LT-171-861 10 µM 1 h, 49.11 °C without LT-171-861): 52.91 °C | IC50 (FLT4/VEGFR3): 0.00124 µM | IC50 (U937): 0.495 µM | CLz (PK study in mice; 10 mg/kg, IG): 18.84572 L/h/kg | Vz (PK study in mice; 10 mg/kg, IG): 100.1863 L/kg | AUC(0-inf) (PK study in mice; [2]): 3.38 µg·h/mL | AUC(0-t) (PK study in mice; [2]): 3.31 µg·h/mL | clearance (PK study in mice; female, BALB/c, mouse, plasma, 10 mg/kg, IV, read-out: CLz (converted)): 2.96 L/h/kg | MRT last (PK study in mice; [2]): 1.86 h | MRT inf (PK study in mice; [2]): 2.1 h | Vd (PK study in mice; female, BALB/c, mouse, plasma, 10 mg/kg, IV, read-out: Vz): 8.61 L/kg | Cmax (PK study in mice; female, BALB/c, mouse, plasma, 10 mg/kg, intravenous injection (IV)): 2.17 µg/mL | Cmax (PK study in mice; female, BALB/c, mouse, plasma, 10 mg/kg, oral administration): 0.2 µM | Cmax (PK study in mice; female, BALB/c, mouse, plasma, 10 mg/kg, oral administration (IG)): 0.088 µg/mL | concentration at 12 h (PK study in mice; female, BALB/c, mouse, plasma, intravenous, 10 mg/kg, i.v): 0.0502 µM | half-life (PK study in mice; female, BALB/c, mouse, plasma, iv, 10 mg/kg, intravenous (tail) injection (IV)): 2.02 h | bioavailability (PK study in mice; female, BALB/c, mouse, plasma, oral versus intravenous at 10 mg/kg): ~15% | concentration at 12 h (PK study in mice; female, BALB/c, mouse, plasma, oral, 10 mg/kg, p.o): 0.03 µM | AUC(0-inf) (PK study in mice; [3]): 0.531 µg·h/mL | AUC(0-t) (PK study in mice; [3]): 0.463 µg·h/mL | MRT last (PK study in mice; [3]): 4.28 h | MRT inf (PK study in mice; [3]): 5.95 h | Tmax (PK study in mice; female, BALB/c, mouse, plasma, po, 10 mg/kg, oral administration (IG), read-out: Tmax (time to maximum plasma level)): 1 h | half-life (PK study in mice; female, BALB/c, mouse, plasma, po, 10 mg/kg, oral administration (IG)): 3.68 h | IC50 (JAK3): 0.0326 µM | IC50 (c-Src): 0.072 µM
